Each structure is given as a SMILES string. Some results are limits rather than exact numbers.

One assay deals with human PDE1B enzyme (Homo sapiens (Human), UniProt Q01064). Nature of the assay: IMAP TR-FRET PDE1B enzymatic assay. It is filed as biochemical. The following applies: negative log of half-maximal molar inhibitory concentration; 200 nM FAM-cAMP; values given as bins. Summed up: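 Full-length GST-tagged human PDE1B (250 pg/well) in IMAP BSA buffer with 10 U/ml calmodulin and 2.5 mM CaCl2; compound pre-incubated 5 min at room temperature, then 200 nM (final) FAM-cAMP for 30 min. IMAP binding reagent/Tb added, 1 h; TR-FRET 520/490 ratio read. IC50 from sigmoidal dose-response fit.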
On the technique in general: TR-FRET usually uses a lanthanide donor and a delayed reading to cut background.
Turning to `Cc1oc2ncnc(NC3(C)CC3)c2c1C(=O)N1CCC(c2ccc(C(N)=O)cc2)CC1` [Example 382, 4-(1-{6-Methyl-4-[(1-methylcyclopropyl)amino]furo[2,3-d]pyrimidine-5-carbonyl}piperidin-4-yl)benzamide], the “PDE1b (pIC50)” value is on record as more than 8.

With `Cc1ccc(C2CCN(C(=O)c3c(C)oc4ncnc(NC5(C)CC5)c34)CC2)cc1` [Example 384, 6-Methyl-N-(1-methylcyclopropyl)-5-[4-(4-methylphenyl)piperidine-1-carbonyl]furo[2,3-d]pyrimidin-4-amine], the “PDE1b (pIC50)” value is more than 8.

On to `Cc1oc2ncnc(NC3(C)CC3)c2c1C(=O)N1CCC(c2ccc(C#N)cc2)CC1` [Example 385, 4-(1-{6-Methyl-4-[(1-methylcyclopropyl)amino]furo[2,3-d]pyrimidine-5-carbonyl}piperidin-4-yl)benzonitrile], for which the “PDE1b (pIC50)” value is listed as more than 8.

For `Cc1oc2ncnc(NC3(C)CC3)c2c1C(=O)N1CCC2(C=Cc3ccccc32)CC1` [Example 387, 6-Methyl-N-(1-methylcyclopropyl)-5-({spiro[indene-1,4′-piperidine]-1′-yl}carbonyl)furo[2,3-d]pyrimidin-4-amine], the “PDE1b (pIC50)” value is on record as more than 8.

Consider `Cc1oc2ncnc(NC3(C)CC3)c2c1C(=O)N1CCC2(CC1)SCc1ccccc12` [Example 388, 6-Methyl-N-(1-methylcyclopropyl)-5-(f{3H-spiro[2-benzothiophene-1,4′-piperidine]-1′-yl}carbonyl)furo[2,3-d]pyrimidin-4-amine], for which the “PDE1b (pIC50)” value is listed as more than 8.

With `Cc1oc2ncnc(NC3(C)CC3)c2c1C(=O)N1CCC(c2cccc(F)c2)C1` (centres unmarked) [Example 389, 5-[3-(3-Fluorophenyl)pyrrolidine-1-carbonyl]-6-methyl-N-(1-methylcyclopropyl)furo[2,3-d]pyrimidin-4-amine], the “PDE1b (pIC50)” value was more than 8.

Consider `Cc1ccnc(C2CCN(C(=O)c3c(C)oc4ncnc(NC5(C)CC5)c34)CC2)n1` [Example 390, 6-Methyl-N-(1-methylcyclopropyl)-5-[4-(4-methylpyrimidin-2-yl)piperidine-1-carbonyl]furo[2,3-d]pyrimidin-4-amine], for which the “PDE1b (pIC50)” value is more than 8.

`Cc1cccc(C2CCN(C(=O)c3c(C)oc4ncnc(NC5(C)CC5)c34)C2)c1` (centres unmarked) [Example 395, 6-Methyl-N-(1-methylcyclopropyl)-5-[3-(3-methylphenyl)pyrrolidine-1-carbonyl]furo[2,3-d]pyrimidin-4-amine]: the “PDE1b (pIC50)” value is more than 8.

As to `Cc1oc2ncnc(NC3(C)CC3)c2c1C(=O)N1CCC(c2cccc(C(F)(F)F)c2)C1` (centres unmarked) [Example 396, 6-Methyl-N-(1-methylcyclopropyl)-5-{3-[3-(trifluoromethyl)phenyl]pyrrolidine-1-carbonyl}furo[2,3-d]pyrimidin-4-amine], the “PDE1b (pIC50)” value was more than 8.

`Cc1cc(C)cc(C2CCN(C(=O)c3c(C)oc4ncnc(NC5(C)CC5)c34)C2)c1` (centres unmarked) [Example 397, 5-[3-(3,5-Dimethylphenyl)pyrrolidine-1-carbonyl]-6-methyl-N-(1-methylcyclopropyl)furo[2,3-d]pyrimidin-4-amine]: the “PDE1b (pIC50)” value is given as more than 8.

`Cc1oc2ncnc(NC3(C)CC3)c2c1C(=O)N1CCC(Oc2cccc(F)c2)C1` (centres unmarked) [Example 398, 5-[3-(3-Fluorophenoxy)pyrrolidine-1-carbonyl]-6-methyl-N-(1-methylcyclopropyl)furo[2,3-d]pyrimidin-4-amine]: the “PDE1b (pIC50)” value is given as more than 8.

The assay is the same for the next values; noted with them: negative log of half-maximal molar inhibitory concentration; 200 nM FAM-cAMP; values given as bins; read-out: PDE1b (pIC50) (converted).
In the case of `Cc1ccc(C2CCN(C(=O)c3c(C)oc4ncnc(NC5(C)CC5)c34)CC2)cn1` [Example 383, 6-Methyl-N-(1-methylcyclopropyl)-5-[4-(6-methylpyridin-3-yl)piperidine-1-carbonyl]furo[2,3-d]pyrimidin-4-amine], the IC50 is 10 to 100 nM.

In the case of `Cc1oc2ncnc(NC3(C)CC3)c2c1C(=O)N1CCC2(CC1)OC(=O)Nc1ccc(F)cc12` [Example 386, 6-Fluoro-1′-{6-methyl-4-[(1-methylcyclopropyl)amino]furo[2,3-d]pyrimidine-5-carbonyl}-1,2-dihydrospiro[3,1-benzoxazine-4,4′-piperidine]-2-one], the IC50 is 10 to 100 nM.

`Cc1cnc(C2CCN(C(=O)c3c(C)oc4ncnc(NC5(C)CC5)c34)CC2)nc1C` [Example 391, 5-[4-(4,5-Dimethylpyrimidin-2-yl)piperidine-1-carbonyl]-6-methyl-N-(1-methylcyclopropyl)furo[2,3-d]pyrimidin-4-amine]: the IC50 was 10 to 100 nM.

Take `Cc1oc2ncnc(NC3(C)CC3)c2c1C(=O)N1CCC2(C1)C(=O)Nc1ccccc12` (centres unmarked) [Example 392, 1′-{6-Methyl-4-[(1-methylcyclopropyl)amino]furo[2,3-d]pyrimidine-5-carbonyl}-1,2-dihydrospiro[indole-3,3′-pyrrolidine]-2-one]: the IC50 was 10 to 100 nM.

`Cc1cnc(C2CCN(C(=O)c3c(C)oc4ncnc(NC5(C)CC5)c34)CC2)cn1` [Example 393, 6-Methyl-N-(1-methylcyclopropyl)-5-[4-(5-methylpyrazin-2-yl)piperidine-1-carbonyl]furo[2,3-d]pyrimidin-4-amine]: the IC50 was 10 to 100 nM.

Regarding `COc1ncc(C2CCN(C(=O)c3c(C)oc4ncnc(NC5(C)CC5)c34)CC2)cn1` [Example 394, 5-[4-(2-Methoxypyrimidin-5-yl)piperidine-1-carbonyl]-6-methyl-N-(1-methylcyclopropyl)furo[2,3-d]pyrimidin-4-amine], the IC50 was 10 to 100 nM.

Consider `Cc1oc2ncnc(NC3(C)CC3)c2c1C(=O)N1CCC(Oc2ccc(F)cc2)C1` (centres unmarked) [Example 399, 5-[3-(4-Fluorophenoxy)pyrrolidine-1-carbonyl]-6-methyl-N-(1-methylcyclopropyl)furo[2,3-d]pyrimidin-4-amine], for which the IC50 is 10 to 100 nM.

Take `Cc1oc2ncnc(NC3(C)CC3)c2c1C(=O)NC(C)C1CC1` (centres unmarked) [Example 400, N-(1-Cyclopropylethyl)-6-methyl-4-[(1-methylcyclopropyl)amino]furo[2,3-d]pyrimidine-5-carboxamide]: the IC50 is 10 to 100 nM.

As to `CCC(NC(=O)c1c(C)oc2ncnc(NC3(C)CC3)c12)C1CC1` (centres unmarked) [Example 401, N-(1-Cyclopropylpropyl)-6-methyl-4-[(1-methylcyclopropyl)amino]furo[2,3-d]pyrimidine-5-carboxamide], the IC50 is 10 to 100 nM.

As to `Cc1oc2ncnc(NC3(C)CC3)c2c1C(=O)NC(C)C1(C)CC1` (centres unmarked) [Example 402, 6-Methyl-4-[(1-methylcyclopropyl)amino]-N-[1-(1-methylcyclopropyl)ethyl]furo[2,3-d]pyrimidine-5-carboxamide], the IC50 is 10 to 100 nM.

Consider `Cc1oc2ncnc(NC3(C)CC3)c2c1C(=O)N1CC2CC(C1)c1ccccc12` [Example 403, 5-{10-Azatricyclo[6.3.1.0^2,7]dodeca-2,4,6-triene-10-carbonyl}-6-methyl-N-(1-methylcyclopropyl)furo[2,3-d]pyrimidin-4-amine], for which the IC50 is 100 to 1000 nM.

Regarding `Cc1oc2ncnc(NC3(C)CC3)c2c1C(=O)n1cc(C(C)C)cn1` [Example 404, 6-Methyl-N-(1-methylcyclopropyl)-5-[4-(propan-2-yl)-1H-pyrazole-1-carbonyl]furo[2,3-d]pyrimidin-4-amine], the IC50 was 10 to 100 nM.

On to `Cc1oc2ncnc(NC3(C)CC3)c2c1C(=O)n1cc(-c2ccccc2)cn1` [Example 405, 6-Methyl-N-(1-methylcyclopropyl)-5-(4-phenyl-1H-pyrazole-1-carbonyl)furo[2,3-d]pyrimidin-4-amine], for which the IC50 is 100 to 1000 nM.

In the case of `COc1ccc(-c2cnn(C(=O)c3c(C)oc4ncnc(NC5(C)CC5)c34)c2)cc1` [Example 406, 5-[4-(4-Methoxyphenyl)-1H-pyrazole-1-carbonyl]-6-methyl-N-(1-methylcyclopropyl)furo[2,3-d]pyrimidin-4-amine], the IC50 was 100 to 1000 nM.

Consider `Cc1oc2ncnc(NC3(C)CC3)c2c1C(=O)n1cc(-c2ccc(F)cc2)cn1` [Example 407, 5-[4-(4-Fluorophenyl)-1H-pyrazole-1-carbonyl]-6-methyl-N-(1-methylcyclopropyl)furo[2,3-d]pyrimidin-4-amine], for which the IC50 was 10 to 100 nM.

Take `Cc1cnn(C(=O)c2c(C)oc3ncnc(NC4(C)CC4)c23)c1` [Example 408, 6-Methyl-5-(4-methyl-1H-pyrazole-1-carbonyl)-N-(1-methylcyclopropyl)furo[2,3-d]pyrimidin-4-amine]: the IC50 is 100 to 1000 nM.

`Cc1nn(C(=O)c2c(C)oc3ncnc(NC4(C)CC4)c23)c(C)c1C` [Example 409, 6-Methyl-N-(1-methylcyclopropyl)-5-(trimethyl-1H-pyrazole-1-carbonyl)furo[2,3-d]pyrimidin-4-amine]: the IC50 was 10 to 100 nM.

Take `Cc1oc2ncnc(NC3(C)CC3)c2c1C(=O)n1cccn1` [Example 410, 6-Methyl-N-(1-methylcyclopropyl)-5-(1H-pyrazole-1-carbonyl)furo[2,3-d]pyrimidin-4-amine]: the IC50 is 100 to 1000 nM.

Consider `Cc1cc(C)n(C(=O)c2c(C)oc3ncnc(NC4(C)CC4)c23)n1` [Example 411, 5-(3,5-Dimethyl-1H-pyrazole-1-carbonyl)-6-methyl-N-(1-methylcyclopropyl)furo[2,3-d]pyrimidin-4-amine], for which the IC50 was 10 to 100 nM.

As to `COc1cccc(-c2cnn(C(=O)c3c(C)oc4ncnc(NC5(C)CC5)c34)c2)c1` [Example 412, 5-[4-(3-Methoxyphenyl)-1H-pyrazole-1-carbonyl]-6-methyl-N-(1-methylcyclopropyl)furo[2,3-d]pyrimidin-4-amine], the IC50 was 10 to 100 nM.

`Cc1oc2ncnc(NC3(C)CC3)c2c1C(=O)NCC1(C)CC1` [Example 413, 6-Methyl-4-[(1-methylcyclopropyl)amino]-N-[(1-methylcyclopropyl)methyl]furo[2,3-d]pyrimidine-5-carboxamide]: the IC50 is 10 to 100 nM.

Source of the values: US20250145633A1, “SUBSTITUTED FURANOPYRIMIDINE COMPOUNDS AS PDE1 INHIBITORS” (Dart NeuroScience, LLC, priority 2017, published 2025).
